{"source": "ChEMBL document CHEMBL2321869", "about": "“Ion channels as therapeutic targets: a drug discovery perspective” (J Med Chem, 2013)", "key": {"[1]": {"target": "Potassium channel subfamily K member 2 (Homo sapiens, UniProt O95069)", "test": "Inhibition of TREK-1 (unknown origin)"}, "[2]": {"target": "T1, Glutamate receptor ionotropic, kainate 1 (Homo sapiens, UniProt P39086)", "T1 sequence (P39086 whole entry)": "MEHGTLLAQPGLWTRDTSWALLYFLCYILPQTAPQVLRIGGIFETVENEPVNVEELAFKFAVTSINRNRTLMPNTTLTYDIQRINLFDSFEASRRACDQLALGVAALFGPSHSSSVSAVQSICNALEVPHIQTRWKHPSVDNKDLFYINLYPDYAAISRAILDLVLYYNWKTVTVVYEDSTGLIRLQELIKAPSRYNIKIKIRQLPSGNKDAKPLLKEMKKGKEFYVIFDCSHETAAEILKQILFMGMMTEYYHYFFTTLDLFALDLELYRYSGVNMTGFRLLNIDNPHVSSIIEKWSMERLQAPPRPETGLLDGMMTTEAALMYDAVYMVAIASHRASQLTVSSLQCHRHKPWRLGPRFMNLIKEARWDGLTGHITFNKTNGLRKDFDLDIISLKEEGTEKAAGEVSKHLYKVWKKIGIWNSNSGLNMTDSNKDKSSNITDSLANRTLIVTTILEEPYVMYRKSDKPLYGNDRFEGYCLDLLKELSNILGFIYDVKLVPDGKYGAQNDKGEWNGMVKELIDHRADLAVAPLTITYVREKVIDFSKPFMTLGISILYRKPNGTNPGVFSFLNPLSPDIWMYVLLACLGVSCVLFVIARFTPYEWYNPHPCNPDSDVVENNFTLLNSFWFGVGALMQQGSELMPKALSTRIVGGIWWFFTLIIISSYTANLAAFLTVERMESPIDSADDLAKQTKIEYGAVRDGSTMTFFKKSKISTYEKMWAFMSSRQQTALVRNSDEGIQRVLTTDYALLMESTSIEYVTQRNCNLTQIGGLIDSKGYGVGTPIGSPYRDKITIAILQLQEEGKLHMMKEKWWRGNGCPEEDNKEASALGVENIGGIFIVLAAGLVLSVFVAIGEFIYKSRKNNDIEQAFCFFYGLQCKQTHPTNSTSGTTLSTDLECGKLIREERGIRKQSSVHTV", "test": "Agonist activity at GluK1 (unknown origin)"}, "Rattus norvegicus": {"species_on_record": "Rattus norvegicus", "test": "Selectivity ratio of EC50 for AMPA receptor in rat DRG neurons to EC50 for AMPA receptor in rat hippocampal neurons", "format": "tissue-based", "conditions": "Hippocampus"}, "[3]": {"test": "Agonist activity at AMPA receptor in rat hippocampal neurons by patch clamp technique", "format": "tissue-based", "conditions": "Hippocampus"}, "[4]": {"target": "Voltage-gated potassium channel KCNC1 (Rattus norvegicus, UniProt P25122)", "sequence (P25122 whole entry)": "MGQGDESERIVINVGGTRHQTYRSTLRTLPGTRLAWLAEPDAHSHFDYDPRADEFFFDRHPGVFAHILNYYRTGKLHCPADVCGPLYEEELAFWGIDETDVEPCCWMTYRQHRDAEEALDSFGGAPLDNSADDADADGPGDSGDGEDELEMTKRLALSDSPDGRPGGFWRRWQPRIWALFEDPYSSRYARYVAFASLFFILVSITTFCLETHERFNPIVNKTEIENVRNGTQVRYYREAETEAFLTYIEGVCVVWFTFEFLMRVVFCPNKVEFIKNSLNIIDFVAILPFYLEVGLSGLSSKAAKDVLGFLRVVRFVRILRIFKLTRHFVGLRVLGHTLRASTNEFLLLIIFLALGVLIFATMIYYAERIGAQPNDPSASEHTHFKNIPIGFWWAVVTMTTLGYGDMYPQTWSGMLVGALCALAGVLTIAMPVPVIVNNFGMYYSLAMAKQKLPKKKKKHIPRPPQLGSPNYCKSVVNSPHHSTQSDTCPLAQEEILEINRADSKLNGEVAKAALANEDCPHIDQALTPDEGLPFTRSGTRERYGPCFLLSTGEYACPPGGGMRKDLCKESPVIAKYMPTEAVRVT", "test": "Inhibition of rat voltage-gated K channel 3.1 expressed in CHO cells by patch clamp assay", "format": "cell-based"}, "[5]": {"test": "Agonist activity at AMPA receptor in rat DRG neurons by patch clamp technique", "conditions": "DRG neuron"}, "[6]": {"target": "T2, Gamma-aminobutyric acid receptor subunit alpha-1 (Homo sapiens, UniProt P14867)", "T2 sequence (P14867 whole entry)": "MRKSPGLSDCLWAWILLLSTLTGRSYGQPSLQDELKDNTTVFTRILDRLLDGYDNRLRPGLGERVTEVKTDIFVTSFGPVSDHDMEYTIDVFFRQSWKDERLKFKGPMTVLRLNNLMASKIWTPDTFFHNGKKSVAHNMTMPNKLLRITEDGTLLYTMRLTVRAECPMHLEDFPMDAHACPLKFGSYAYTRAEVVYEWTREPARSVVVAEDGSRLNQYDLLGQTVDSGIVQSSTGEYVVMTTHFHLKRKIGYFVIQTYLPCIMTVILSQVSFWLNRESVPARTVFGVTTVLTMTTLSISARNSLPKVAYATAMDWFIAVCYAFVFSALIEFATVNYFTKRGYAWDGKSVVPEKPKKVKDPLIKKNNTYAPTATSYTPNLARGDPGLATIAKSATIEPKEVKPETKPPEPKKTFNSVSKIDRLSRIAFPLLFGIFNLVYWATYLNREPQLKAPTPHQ", "test": "Positive allosteric modulation of GABAA alpha1 (unknown origin)"}, "[7]": {"target": "T3, Gamma-aminobutyric acid receptor subunit alpha-5 (Homo sapiens, UniProt P31644)", "T3 sequence (P31644 whole entry)": "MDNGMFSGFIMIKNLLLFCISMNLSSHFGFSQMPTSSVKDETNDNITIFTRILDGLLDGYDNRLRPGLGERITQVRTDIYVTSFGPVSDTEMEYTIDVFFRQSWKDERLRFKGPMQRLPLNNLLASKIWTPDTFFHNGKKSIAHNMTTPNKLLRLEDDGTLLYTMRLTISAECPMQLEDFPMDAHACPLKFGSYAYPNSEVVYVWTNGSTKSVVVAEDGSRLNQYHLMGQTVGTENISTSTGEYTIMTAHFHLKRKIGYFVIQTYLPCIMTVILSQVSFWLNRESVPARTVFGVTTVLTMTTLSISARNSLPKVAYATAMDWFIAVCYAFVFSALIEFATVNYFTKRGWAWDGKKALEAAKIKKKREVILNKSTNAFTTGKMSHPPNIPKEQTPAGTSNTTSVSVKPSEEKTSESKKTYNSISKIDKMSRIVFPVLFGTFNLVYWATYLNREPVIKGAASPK", "test": "Positive allosteric modulation of GABAA alpha5 (unknown origin)"}, "[8]": {"target": "T4, Gamma-aminobutyric acid receptor subunit alpha-2 (Homo sapiens, UniProt P47869)", "T4 sequence (P47869 whole entry)": "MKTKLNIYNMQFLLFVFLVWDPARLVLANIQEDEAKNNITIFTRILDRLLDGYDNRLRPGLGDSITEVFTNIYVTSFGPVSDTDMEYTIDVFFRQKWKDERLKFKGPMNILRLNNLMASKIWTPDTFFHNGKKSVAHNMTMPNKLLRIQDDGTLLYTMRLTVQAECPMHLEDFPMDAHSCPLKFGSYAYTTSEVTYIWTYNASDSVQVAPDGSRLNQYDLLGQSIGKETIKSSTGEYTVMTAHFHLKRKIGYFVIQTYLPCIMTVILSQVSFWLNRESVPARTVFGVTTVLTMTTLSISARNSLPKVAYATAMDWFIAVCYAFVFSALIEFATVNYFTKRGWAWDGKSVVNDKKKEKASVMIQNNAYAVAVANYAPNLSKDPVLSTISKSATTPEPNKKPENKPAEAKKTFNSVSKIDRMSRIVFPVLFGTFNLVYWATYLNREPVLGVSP", "test": "Positive allosteric modulation of GABAA alpha2 (unknown origin)"}, "[9]": {"target": "T5, Gamma-aminobutyric acid receptor subunit alpha-3 (Homo sapiens, UniProt P34903)", "T5 sequence (P34903 whole entry)": "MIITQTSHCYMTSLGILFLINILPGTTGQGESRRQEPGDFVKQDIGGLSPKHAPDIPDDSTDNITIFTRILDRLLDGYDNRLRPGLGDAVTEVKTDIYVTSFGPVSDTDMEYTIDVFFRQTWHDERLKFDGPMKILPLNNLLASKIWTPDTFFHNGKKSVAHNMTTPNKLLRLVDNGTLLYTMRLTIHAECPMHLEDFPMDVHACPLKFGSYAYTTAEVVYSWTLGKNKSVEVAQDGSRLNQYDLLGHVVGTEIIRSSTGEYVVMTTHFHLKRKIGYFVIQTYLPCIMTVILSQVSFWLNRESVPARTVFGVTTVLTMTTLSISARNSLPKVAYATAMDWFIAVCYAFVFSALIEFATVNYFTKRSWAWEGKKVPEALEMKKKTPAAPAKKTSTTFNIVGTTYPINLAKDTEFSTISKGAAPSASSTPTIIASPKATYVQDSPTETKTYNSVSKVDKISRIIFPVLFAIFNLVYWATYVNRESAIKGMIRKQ", "test": "Positive allosteric modulation of GABAA alpha3 (unknown origin)"}, "[10]": {"target": "Neuronal acetylcholine receptor; alpha4/beta2 (Homo sapiens, UniProt P17787+P43681)", "test": "Agonist activity at human alpha4beta2 nAChR expressed in HEK293 cells incubated for 5 mins measured every second for 1 mins followed by every 5 secs for 4 mins by calcium flux assay", "format": "cell-based"}, "[11]": {"test": "Inhibition of AMPA receptor (unknown origin)", "set-up": "species or system Homo sapiens"}, "[12]": {"target": "T1, Glutamate receptor ionotropic, kainate 1", "test": "Inhibition of GluK1 receptor (unknown origin)"}, "[13]": {"target": "Sodium channel protein type 10 subunit alpha (Homo sapiens, UniProt Q9Y5Y9)", "test": "Inhibition of voltage-gated Na channel 1.8 (unknown origin)"}, "Homo sapiens": {"species_on_record": "Homo sapiens", "test": "Selectivity ratio of IC50 for human voltage-gated Na channel 1.5 to IC50 for human voltage-gated Na channel 1.3"}, "[14]": {"target": "Sodium channel protein type 3 subunit alpha (Homo sapiens, UniProt Q9NY46)", "sequence (Q9NY46 whole entry)": "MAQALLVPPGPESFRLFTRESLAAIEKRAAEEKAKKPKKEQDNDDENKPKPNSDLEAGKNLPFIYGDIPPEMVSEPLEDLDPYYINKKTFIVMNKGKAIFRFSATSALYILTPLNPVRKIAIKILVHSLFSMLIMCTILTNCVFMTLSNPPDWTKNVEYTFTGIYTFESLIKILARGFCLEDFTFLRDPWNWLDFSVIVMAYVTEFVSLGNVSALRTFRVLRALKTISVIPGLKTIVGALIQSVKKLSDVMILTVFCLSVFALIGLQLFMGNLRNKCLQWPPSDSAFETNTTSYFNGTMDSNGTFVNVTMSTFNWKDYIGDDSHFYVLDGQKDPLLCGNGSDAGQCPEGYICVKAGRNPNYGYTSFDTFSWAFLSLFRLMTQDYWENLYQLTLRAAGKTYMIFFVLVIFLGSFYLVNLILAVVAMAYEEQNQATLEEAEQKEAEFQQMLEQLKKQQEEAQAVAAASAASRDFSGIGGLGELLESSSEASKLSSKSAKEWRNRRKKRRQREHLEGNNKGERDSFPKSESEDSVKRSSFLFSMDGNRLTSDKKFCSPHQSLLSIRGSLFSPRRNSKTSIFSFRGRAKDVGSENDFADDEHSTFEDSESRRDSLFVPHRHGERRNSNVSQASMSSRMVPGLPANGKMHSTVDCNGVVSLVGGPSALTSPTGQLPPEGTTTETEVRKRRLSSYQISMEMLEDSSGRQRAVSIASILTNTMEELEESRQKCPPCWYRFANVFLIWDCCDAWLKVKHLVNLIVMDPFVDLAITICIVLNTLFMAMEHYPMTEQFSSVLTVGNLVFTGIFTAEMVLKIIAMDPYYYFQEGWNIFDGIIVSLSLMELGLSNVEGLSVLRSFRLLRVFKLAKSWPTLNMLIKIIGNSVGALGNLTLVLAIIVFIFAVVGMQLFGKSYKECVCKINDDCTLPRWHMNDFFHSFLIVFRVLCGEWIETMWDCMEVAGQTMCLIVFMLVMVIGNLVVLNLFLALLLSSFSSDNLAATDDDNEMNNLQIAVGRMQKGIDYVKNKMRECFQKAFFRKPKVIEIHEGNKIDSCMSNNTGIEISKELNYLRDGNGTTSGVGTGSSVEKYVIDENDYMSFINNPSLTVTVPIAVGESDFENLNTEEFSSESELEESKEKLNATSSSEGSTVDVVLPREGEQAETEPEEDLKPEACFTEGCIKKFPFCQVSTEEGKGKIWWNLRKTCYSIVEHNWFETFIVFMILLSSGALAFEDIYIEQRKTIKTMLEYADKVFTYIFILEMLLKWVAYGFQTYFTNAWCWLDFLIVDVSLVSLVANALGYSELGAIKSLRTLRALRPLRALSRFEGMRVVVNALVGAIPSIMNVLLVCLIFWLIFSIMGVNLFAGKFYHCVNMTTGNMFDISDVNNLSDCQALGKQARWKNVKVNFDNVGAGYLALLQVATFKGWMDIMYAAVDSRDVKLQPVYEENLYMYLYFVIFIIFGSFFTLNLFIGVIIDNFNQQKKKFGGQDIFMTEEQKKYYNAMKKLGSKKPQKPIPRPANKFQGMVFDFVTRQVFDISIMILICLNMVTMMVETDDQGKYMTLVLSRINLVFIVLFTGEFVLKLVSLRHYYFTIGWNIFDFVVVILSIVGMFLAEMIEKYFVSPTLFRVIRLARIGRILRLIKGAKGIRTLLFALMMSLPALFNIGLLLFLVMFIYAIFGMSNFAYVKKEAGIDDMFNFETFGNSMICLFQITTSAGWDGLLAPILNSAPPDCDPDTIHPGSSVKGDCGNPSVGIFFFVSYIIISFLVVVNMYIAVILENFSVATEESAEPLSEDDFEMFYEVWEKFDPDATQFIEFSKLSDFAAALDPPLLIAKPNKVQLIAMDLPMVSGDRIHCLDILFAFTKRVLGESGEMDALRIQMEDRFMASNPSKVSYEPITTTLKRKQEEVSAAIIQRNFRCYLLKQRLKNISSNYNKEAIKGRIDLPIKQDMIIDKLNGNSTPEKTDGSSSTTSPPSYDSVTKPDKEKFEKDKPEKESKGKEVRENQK", "test": "Inhibition of human voltage-gated Na channel 1.3"}, "[15]": {"target": "P2X2/P2X3 heterotrimeric receptor (Homo sapiens, UniProt P56373+Q9UBL9)", "sequence (Q9UBL9 whole entry)": "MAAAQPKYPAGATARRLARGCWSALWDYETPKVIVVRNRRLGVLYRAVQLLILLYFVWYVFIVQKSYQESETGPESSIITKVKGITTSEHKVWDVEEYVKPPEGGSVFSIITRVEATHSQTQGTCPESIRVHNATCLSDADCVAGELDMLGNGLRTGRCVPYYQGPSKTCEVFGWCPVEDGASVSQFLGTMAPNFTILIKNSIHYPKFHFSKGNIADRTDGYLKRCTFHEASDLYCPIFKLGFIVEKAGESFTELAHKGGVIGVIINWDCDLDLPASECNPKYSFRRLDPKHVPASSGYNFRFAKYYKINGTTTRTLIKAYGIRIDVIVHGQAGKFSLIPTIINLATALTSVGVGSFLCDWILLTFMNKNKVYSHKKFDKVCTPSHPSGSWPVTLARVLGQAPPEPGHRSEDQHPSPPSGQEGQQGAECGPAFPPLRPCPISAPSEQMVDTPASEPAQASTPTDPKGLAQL", "sequence (P56373 whole entry)": "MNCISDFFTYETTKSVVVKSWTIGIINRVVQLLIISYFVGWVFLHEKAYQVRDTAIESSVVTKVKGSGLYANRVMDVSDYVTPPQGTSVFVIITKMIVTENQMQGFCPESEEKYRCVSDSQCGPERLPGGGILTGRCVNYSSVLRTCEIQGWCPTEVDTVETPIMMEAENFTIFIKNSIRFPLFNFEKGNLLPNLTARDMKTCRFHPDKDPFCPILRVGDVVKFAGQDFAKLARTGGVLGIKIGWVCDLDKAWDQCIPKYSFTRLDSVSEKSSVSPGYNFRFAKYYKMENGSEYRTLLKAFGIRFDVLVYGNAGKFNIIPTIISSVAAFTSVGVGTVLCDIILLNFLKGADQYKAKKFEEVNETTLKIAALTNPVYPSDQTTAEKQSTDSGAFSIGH", "test": "Antagonist activity at human P2X2/3 receptor", "format": "protein-complex assay"}, "[16]": {"target": "Acid-sensing ion channel 3 (Rattus norvegicus, UniProt O35240)", "test": "Inhibition of ASIC3 in rat DRG neurons"}, "[17]": {"target": "Inward rectifier potassium channel 4 (Homo sapiens, UniProt P48050)", "sequence (P48050 whole entry)": "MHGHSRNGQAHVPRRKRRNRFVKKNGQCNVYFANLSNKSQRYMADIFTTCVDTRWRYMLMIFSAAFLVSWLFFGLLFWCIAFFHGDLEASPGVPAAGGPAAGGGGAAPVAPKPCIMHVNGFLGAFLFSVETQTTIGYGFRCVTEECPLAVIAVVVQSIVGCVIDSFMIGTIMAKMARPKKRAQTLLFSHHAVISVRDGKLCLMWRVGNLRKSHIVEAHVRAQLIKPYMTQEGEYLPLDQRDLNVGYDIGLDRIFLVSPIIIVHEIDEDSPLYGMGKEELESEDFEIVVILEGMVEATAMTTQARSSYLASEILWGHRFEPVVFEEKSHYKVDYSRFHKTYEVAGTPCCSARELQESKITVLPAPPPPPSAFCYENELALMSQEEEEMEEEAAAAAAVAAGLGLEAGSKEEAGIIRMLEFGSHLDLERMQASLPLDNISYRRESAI", "test": "Inhibition of Kir2.3 (unknown origin)"}}}
{"smiles": "CCOC(=O)C1=C(COCCN)NC(C)=C(C(=O)OC)C1c1ccccc1Cl", "note": "(stereo unspecified) [AMLODIPINE]", "values": [{"measurement": "IC50", "setting": "[1]", "result": 400, "unit": "nM"}]}
{"smiles": "CC(C)(C)c1s[nH]c(=O)c1C[C@H](N)C(=O)O", "values": [{"measurement": "EC50", "setting": "[2]", "result": 100, "unit": "nM"}]}
{"smiles": "N[C@@H](Cn1cc(F)c(=O)[nH]c1=O)C(=O)O", "values": [{"measurement": "Ratio EC50", "setting": "Rattus norvegicus", "result": 46}, {"measurement": "EC50", "setting": "[3]", "result": 1500, "unit": "nM"}]}
{"smiles": "CNCCC(Oc1ccc(C(F)(F)F)cc1)c1ccccc1", "note": "(stereo unspecified) [FLUOXETINE]", "values": [{"measurement": "IC50", "setting": "[4]", "result": 13100, "unit": "nM"}]}
{"smiles": "N[C@@H](Cn1cc(Cl)c(=O)[nH]c1=O)C(=O)O", "values": [{"measurement": "EC50", "setting": "[5]", "result": 2000, "unit": "nM"}, {"measurement": "EC50", "setting": "[3]", "result": 2000, "unit": "nM"}]}
{"smiles": "CCOC(=O)c1ncn2c1[C@@H]1CCCN1C(=O)c1cc(OC)ccc1-2", "values": [{"measurement": "Ki", "setting": "[6]", "result": 49, "unit": "nM"}, {"measurement": "Ki", "setting": "[7]", "result": 0.45, "unit": "nM"}, {"measurement": "Ki", "setting": "[8]", "result": 27, "unit": "nM"}, {"measurement": "Ki", "setting": "[9]", "result": 25, "unit": "nM"}]}
{"smiles": "CN[C@@H](C)C/C=C/c1cncc(OC(C)C)c1", "note": "[ISPRONICLINE]", "values": [{"measurement": "EC50", "setting": "[10]", "result": 106, "unit": "nM"}]}
{"smiles": "O=C(O)[C@@H]1C[C@H]2C[C@@H](CCc3nn[nH]n3)CC[C@H]2CN1", "note": "[TEZAMPANEL ANHYDROUS]", "values": [{"measurement": "IC50", "setting": "[11]", "result": 500, "unit": "nM"}, {"measurement": "IC50", "setting": "[12]", "result": 500, "unit": "nM"}]}
{"smiles": "O=C(NCc1cccnc1N1CCOCC1)c1cncc(-c2ccc(OC(F)(F)F)cc2)n1", "values": [{"measurement": "IC50", "setting": "[13]", "result": 30, "unit": "nM"}]}
{"smiles": "O=C(NCc1ccc(Cl)c(C(F)(F)F)c1)c1ccc(S(=O)(=O)Nc2ncc(Cl)s2)cc1", "values": [{"measurement": "Ratio IC50", "setting": "Homo sapiens", "result": "> 1000"}, {"measurement": "IC50", "setting": "[14]", "result": 30, "unit": "nM"}]}
{"smiles": "CCc1nnnn1-c1cc(C(=O)NC(C)c2cnccn2)cc(-c2ccc(C)cc2)c1", "note": "(stereo unspecified)", "values": [{"measurement": "IC50", "setting": "[15]", "result": 8000, "unit": "nM"}]}
{"smiles": "NCCC(Oc1ccc(C(F)(F)F)cc1)c1ccccc1", "note": "(stereo unspecified) [NORFLUOXETINE]", "values": [{"measurement": "IC50", "setting": "[4]", "result": 800, "unit": "nM"}]}
{"smiles": "CC(C)C1c2cc(C3CC3c3ccc4cc(C(=N)N)ccc4c3)ccc2CCN1C", "note": "(stereo unspecified)", "values": [{"measurement": "IC50", "setting": "[16]", "result": 9500, "unit": "nM"}]}
{"smiles": "N=c1n(Cc2ccccc2)c2ccccc2n1CC(O)CN1CCOCC1", "note": "(stereo unspecified)", "values": [{"measurement": "IC50", "setting": "[17]", "result": 24000, "unit": "nM"}]}
